In patent publication EP0082498A2, “Beta-lactam compounds and process for the preparation thereof” (SAGAMI CHEMICAL RESEARCH CENTER, priority 1981, dated 1983):
Converted amounts (≈) assume the structure as drawn. Where a name gives a salt, the structure may show the parent alone. Read-outs that look alike come from different tables or passages of the source.

Assays:
Experiment in all cases: Antibacterial activity, minimum inhibition concentration (MIC)
Type in all cases: cell-based
[1] = test system: Staphylococcus aureus MS 353; settings: for MIC: Staphylococcus aureus
Method: (§1) Antibacterial activities of the compounds according to this invention, which had been prepared in the preceding Examples, were measured according to the method prescribed by The Committee of Amendment of "The method for measurement of the minimum inhibition concentration", The Chemotherapy Association, Japan (See Chemotherapy, Vol. 29, No. 1, pp. 76 ~ 79 (1981)).
(§2) The test results are shown in terms of the minimum inhibition concentration (MIC) (unit: µg/mℓ) in the following Tables 1 to 4.

[2] = test system: Proteus morganii IFO 3848; settings: for MIC: Morganella morganii
Method: as §1, §2

[3] = test system: Salmonella typhimrium 901
Method: as §1, §2

[4] = test system: Staphylococcus aureus FDA 209 PJC-1
Method: as §1, §2

[5] = test system: Proteus mirabillis IFO 3849; settings: Table 3
Method: as §1, §2

[6] = test system: Klebsiella pneumoniae PCI-602; settings: PCI602, Table 3
Method: as §1, §2

[7] = test system: Escherichia coli NIHJ-JC-2
Method: as §1, §2

[8] = test system: Salmonella typhimurium IID-971; settings: Salmonella typhimurium IID-971; for MIC: Salmonella enterica, read-out: minimum inhibition concentration (MIC)
Method: as §1, §2

[9] = test system: Pseudomonas aeruginosa NCTC 10490; settings: NCTC10490, Table 2
Method: as §1, §2

[10] = MS353, Table 4, Staphylococcus aureus MS 353, read-out: minimum inhibition concentration (MIC)
[11] = IFO3848, Table 4, Proteus morganii IFO 3848, read-out: minimum inhibition concentration (MIC)
[12] = Table 4, Salmonella typhimrium 901, read-out: minimum inhibition concentration (MIC)
[13] = IFO3848, Table 2, Proteus morganii IFO-3848, read-out: minimum inhibition concentration (MIC)
[14] = MS353, Table 1, Staphylococcus aureus MS 353, read-out: minimum inhibition concentration (MIC)
[15] = IFO3848, Table 1, Proteus morganii IFO 3848, read-out: minimum inhibition concentration (MIC)

## Nc1nc(C(=CCl)C(=O)NC2C(=O)N3C(C(=O)O)=C(CSc4nnnn4CCO)CSC23)cs1 (single isomer, unassigned) [Example 31]
[1]; [10]
  MIC: 0.78 µg/mL (≈ 1.43 µM)
[2]; [11]
  MIC: ≤ 0.00625 µg/mL
[3]; [12]
  MIC: 0.39 µg/mL (≈ 0.716 µM)

## Nc1nc(C(=CI)C(=O)NC2C(=O)N3C(C(=O)O)=C(CSc4nncs4)CS[C@H]23)cs1 (single isomer, unassigned) [Example 37, 7-[2-Iodomethylene-2-(2-aminothiazol-4-yl)acetamido]-3-(1,3,4-thiadiazol-2-yl)thiomethyl-3-cephem-4-carboxylic acid]
[1]; [10]
  MIC: 0.2 µg/mL (≈ 0.329 µM)
[2]; [11]
  MIC: ≤ 0.00313 µg/mL
[3]; [12]
  MIC: 0.39 µg/mL (≈ 0.641 µM)

## Cn1nnnc1SCC1=C(C(=O)O)N2C(=O)C(NC(=O)C(=CCl)c3csc(N)n3)C2SC1 (single isomer, unassigned) [Example 27, sodium 7-[2-chloromethylene-2-(2-aminothiazol-4-yl)acetamido]-3-(1-methyl-1H-tetrazol-5-yl)thiomethyl-3-cephem-4-carboxylate]
[4]; FDA209, Table 3
  MIC: 0.78 µg/mL
[5]
  MIC: 0.2 µg/mL
[6]
  MIC: < 0.00625 µg/mL
[7]; NIHJJC2, Table 3
  MIC: 0.2 µg/mL
[8]; Table 3
  MIC: 0.78 µg/mL

## CCSc1nnc(SCC2=C(C(=O)O)N3C(=O)C(NC(=O)C(=CCl)c4csc(N)n4)C3SC2)s1 (single isomer, unassigned) [Example 22, 7-[2-Chloromethylene-2-(2-aminothiazol-4-yl)acetamido]-3-(2-ethylthio-l,3,4-thiadiazol-5-yl)thiomethyl-3-cephem-4-carboxylic acid hydrochloride]
[4]; FDA209, Table 2
  MIC: 0.2 µg/mL
[9]
  MIC: 1.56 µg/mL
[7]; NIHJJC2, Table 2
  MIC: 0.2 µg/mL
[2]; [13]
  MIC: ≤ 0.0063 µg/mL

## Nc1nc(C(=CCl)C(=O)NC2C(=O)N3C(C(=O)O)=C(CSc4cnns4)CSC23)cs1 (single isomer, unassigned) [Example 33, sodium 7-[2-chloromethylene-2-(2-aminothiazol-4-yl)acetamido]-3-(1,2,3-thiadiazol-5-yl)thiomethyl-3-cephem-4-carboxylate]
[1]; [10]
  MIC: 0.1 µg/mL
[2]; [11]
  MIC: ≤ 0.00625 µg/mL
[3]; [12]
  MIC: 0.2 µg/mL

## CC1(C)S[C@@H]2C(NC(=O)C(=CCl)c3csc(N)n3)C(=O)N2[C@H]1C(=O)[O-].[Na+] (single isomer, unassigned) [Example 38, Sodium 6-[2-chloromethylene-2-(2-aminothiazol-4-yl)acetamido]penicillanate]
[1]; MS353, read-out: minimum inhibition concentration (MIC)
  MIC: 0.2 µg/mL
[2]; IFO3848, read-out: minimum inhibition concentration (MIC)
  MIC: 0.05 µg/mL
[3]; Salmonella, 901, read-out: minimum inhibition concentration (MIC)
  MIC: 3.12 µg/mL

## CC(=O)OCC1=C(C(=O)O)N2C(=O)C(NC(=O)C(=CCl)c3csc(N)n3)C2SC1 (single isomer, unassigned) [Example 28, sodium 7-[2-chloromethylene-2-(2-aminothiazol-4-yl)-acetamido]-3-acetoxymethyl-3-cephem-4-carboxylate]
[4]; FDA209, Table 3
  MIC: 12.5 µg/mL
[5]
  MIC: 0.2 µg/mL
[6]
  MIC: 0.05 µg/mL
[7]; NIHJJC2, Table 3
  MIC: 0.1 µg/mL
[8]; Table 3
  MIC: 12.5 µg/mL

## sodium 7-[2-chloromethylene-2-(2-aminothiazol-4-yl)-acetamido]-3-(2-hydroxycarbonylmethylthio-1,3,4-thiadia- zol-5-yl)thiomethyl-3-cephem-4-carboxylate [Example 35]
[1]; Table 4, Staphylococcus aureus MS 353
  minimum inhibition concentration (MIC): 0.78 µg/mL
[2]; Table 4, Proteus morganii IFO 3848
  minimum inhibition concentration (MIC): ≤0.00625 µg/mL
[3]; Table 4, Salmonella typhimrium 901
  minimum inhibition concentration (MIC): 0.78 µg/mL

## Cn1ncc(=O)nc1SCC1=C(C(=O)O)N2C(=O)C(NC(=O)C(=CCl)c3csc(N)n3)C2SC1 (single isomer, unassigned) [Example 36, sodium 7-[2-chloromethylene-2-(2-aminothiazol-4-yl)acetamido]-3-(2-dihydro-2-methyl-5-oxo-as-triazine-3-yl)thiomethyl-3-cephem-4-carboxylate]
[1]; [10]
  MIC: 0.39 µg/mL
[2]; [11]
  MIC: ≤ 0.00625 µg/mL
[3]; [12]
  MIC: 0.39 µg/mL

## N#CCn1nnnc1SCC1=C(C(=O)O)N2C(=O)C(NC(=O)C(=CCl)c3csc(N)n3)C2SC1 (single isomer, unassigned) [Example 32, sodiun 7-[2-chloromethylene-2-(2-aminothiazol-4-yl)acetamido]-3-(l-cyanomethyl-l,2,3,4-tetrazol-5-yl)thiomethyl-3-cephem-4-carboxylate]
[1]; [10]
  MIC: 1.56 µg/mL (≈ 2.89 µM)
[2]; [11]
  MIC: 0.0125 µg/mL (≈ 0.0231 µM)
[3]; [12]
  MIC: 0.78 µg/mL (≈ 1.44 µM)

## Cc1nnc(SCC2=C(C(=O)O)N3C(=O)C(NC(=O)C(=CBr)c4csc(N)n4)C3SC2)s1 (centres unmarked) [Example 26, 7-[2-Bromomethylene-2-(2-aminothiazol-4-yl)acetamido]-3-(2-methyl-1,3,4-thiadiazol-5-yl)thiomethy1-3-cephem-4-carboxylic acid]
[4]; FDA209, Table 2
  MIC: 0.39 µg/mL (≈ 0.678 µM)
[9]
  MIC: 0.39 µg/mL (≈ 0.678 µM)
[7]; NIHJJC2, Table 2
  MIC: 0.1 µg/mL (≈ 0.174 µM)
[2]; [13]
  MIC: ≤ 0.0063 µg/mL

## COC(=O)Cn1nnnc1SCC1=C(C(=O)O)N2C(=O)C(NC(=O)C(=CCl)c3csc(N)n3)C2SC1 (single isomer, unassigned) [Example 30, disodium 7-[2-chloromethylene-2-(2-aminothiazol-4-yl)acetamido]-3-(l-methoxycarbonylmethyl-1,2,3,4-tetrazol-5-yl)thiomethyl-3-cephem-4-carboxylate]
[1]; [10]
  MIC: 0.78 µg/mL
[3]; [12]
  MIC: 0.2 µg/mL

## NC(=O)Cn1nnnc1SCC1=C(C(=O)O)N2C(=O)C(NC(=O)C(=CCl)c3csc(N)n3)C2SC1 (single isomer, unassigned) [Example 29, sodium 7-[2-chloromethylene-2-(2-aminothiazol-4-yl)acetamido]-3-(1-carbamoylmethyl-1,2,3,4-tetrazol-5-yl)thiomethyl-3-cephem-4-carboxylate]
[1]; [10]
  MIC: 0.78 µg/mL
[3]; [12]
  MIC: 0.1 µg/mL

## Cn1nnnc1SCC1=C(C(=O)O)N2C(=O)C(NC(=O)C(=CC#N)c3csc(NC=O)n3)[C@H]2SC1 (single isomer, unassigned) [Example 15, 7-[2-Cyanomethylene-2-(2-formylaminothiazol-4-yl)acetamido]-3-(1-methyl-1H-tetrazol-5-yl)thiomethyl-3-cephem-4-carboxylic acid]
[1]; Table 1, Staphylococcus aureus MS 353
  minimum inhibition concentration (MIC): 1.56 µg/mL (≈ 2.92 µM)
[2]; Table 1, Proteus morganii IFO 3848
  minimum inhibition concentration (MIC): 0.39 µg/mL (≈ 0.731 µM)
[8]; Table 1
  minimum inhibition concentration (MIC): 0.05 µg/mL (≈ 0.0937 µM)

## Cl.Cn1nnnc1SCC1=C(C(=O)O)N2C(=O)C(NC(=O)C(=CC#N)c3csc(N)n3)[C@H]2SC1 (single isomer, unassigned) [Example 14, 7-[2-Cyanomethylene-2-(2-aminothiazol-4-yl)acetamido]-3-(1-methyl-1H-tetrazol-5-yl)thiomethyl-3-cephem-4-carboxylic acid hydrochloride salt]
[1]; [14]
  MIC: 100 µg/mL
[2]; [15]
  MIC: 0.39 µg/mL
[8]; Table 1
  MIC: 0.39 µg/mL

## Nc1nc(C(=CCl)C(=O)NC2C(=O)N3C(C(=O)O)=C(CSc4cnn[nH]4)CSC23)cs1 (single isomer, unassigned) [Example 34, sodium7-[2-chloramethylene-2-(2-aminothiazol-4-yl)acetamido]-3-(l,2,3-triazol-5-yl)thiomethyl-3-cephem-4-carboxylate]
[1]; [10]
  MIC: 0.78 µg/mL
[2]; [11]
  MIC: 0.0125 µg/mL
[3]; [12]
  MIC: 0.78 µg/mL

## Cn1nnnc1SCC1=C(C(=O)O)N2C(=O)C(NC(=O)C(=CCl)c3cnc(N)s3)C2SC1 (stereo not drawn) [Example 7, sodium 7-[2-chloromethylene-2-(2-aminothiazol-5-yl)acetamido]-3-(l-methyl-lH-tetrazol-5-yl)thiomethyl-3-cephem-4-carboxylate]
[1]; [14]
  MIC: 0.39 µg/mL
[2]; [15]
  MIC: 1.56 µg/mL
[8]; Table 1
  MIC: 1.56 µg/mL

## Nc1nc(C(=CBr)C(=O)NC2C(=O)N3C(C(=O)O)=C(CSc4nncs4)CS[C@H]23)cs1 (some centres unmarked) [Example 25, 7-[2-Bromomethylene-2-(2-aminothiazol-4-yl)acetamido]-3-(1,3,4-thiadiazol-2-yl)thiomethyl-3-cephem-4-carboxylic acid]
[4]; FDA209, Table 2
  MIC: 0.2 µg/mL (≈ 0.356 µM)
[9]
  MIC: 0.2 µg/mL (≈ 0.356 µM)
[7]; NIHJJC2, Table 2
  MIC: 0.1 µg/mL (≈ 0.178 µM)
[2]; [13]
  MIC: ≤ 0.0063 µg/mL
